Measured values reported in paper PMC8068036, “Synthesis of New Biscoumarin Derivatives, In Vitro Cholinesterase Inhibition, Molecular Modelling and Antiproliferative Effect in A549 Human Lung Carcinoma Cells” (International Journal of Molecular Sciences, 2021).
Entries after “also recorded” stand apart in the source; their conditions may differ.

Assays:
A549 cells [1] = test: Quantification of cell number and viability (eosin staining); assay type: cell-based, human; settings: 35 and 65 μM, 24 h, eosin negative cells
Experimental: For the assessment of total cell numbers and viability within individual experimental groups, floating and adherent cells were harvested after treatment with the studied derivatives and evaluated using a Bürker chamber with eosin staining. A549 cells were plated at a density of 135 × 10^3 cell/well into a 6-well plate and treated with different concentrations of derivatives (35 and 65 µM) for 24 hrs. The total cell number was expressed as a percentage of the total cell number of the untreated control. Viability was expressed as a percentage of viable, eosin negative cells. The results are presented as the average percentage of cells from three independent experiments.

A549 cells [2] = test: Colony-forming assay; assay type: cell-based, human; settings: 65 μM, 24 h treatment, 7 days cultivation, vs untreated control
Experimental: For the colony-forming assay, floating and adherent cells were harvested together 24 h after treatment with the studied derivatives (35 and 65 µM). The cells were then counted using a Bürker chamber with eosin staining, and 500 viable cells per well were seeded in 6-well plates. After 7 days of cultivation under standard conditions, the cells in the plates were fixed and stained with 1% methylene blue dye in methanol. Visualized colonies were scanned and counted, and the results were evaluated as percentages of the untreated control. The results are presented as the average percentage of colonies from three independent experiments.

A549 cells [3] = test: Cell cycle analysis (flow cytometry, PI); assay type: cell-based, human; settings: 35 and 65 µM, 24 h
Experimental: For flow cytometric analysis of the cell cycle distribution, floating and adherent cells were harvested together 24 h after treatment with the derivatives (35 and 65 µM), washed in cold PBS, fixed in cold 70% ethanol, and stored overnight at −20 °C. Prior to analysis, the cells were washed twice in PBS, resuspended in a staining solution (0.1% Triton X-100, 0.137 g L^−1 ribonuclease A and 0.02 g L^−1 propidium iodide—PI), and incubated in dark conditions at RT for 30 min. The DNA content was analyzed using a BD FACSCalibur flow cytometer (Becton Dickinson, San Jose, CA, USA) with a 488 nm argon-ion excitation laser, and fluorescence was detected using a 585/42 nm band-pass filter (FL-2). ModFit 3.0 software (Verity Software House, Topsham, ME, USA) was used to generate DNA content frequency histograms and to quantify the percentage of cells in the individual cell cycle phases. The results are presented as the average ratio of cells in the individual phase to all cells from three independent experiments.

A549 cells [4] = test: Mitotic activity (Ki67 index) by immunolabelling and confocal microscopy; assay type: cell-based, human; settings: 24 h, control 90.6 ± 5.7%
Experimental: The studied biscoumarin derivatives were added to cells seeded on 12-well μ-Chamber slides for 24 h. After cultivation with the derivatives, the samples (both the control without the derivatives and experimental groups) were washed with a 0.1 M PBS solution buffer to remove all non-cell-absorbed derivative residues and fixed with 4% paraformaldehyde for 20 min at RT. Alternatively, cells were incubated with Mitotracker Red (0.5 µM; Thermo Fisher Scientific, Waltham, MA, USA) for 30 min at 37 °C, washed with 0.1 M PBS, and fixed with 4% paraformaldehyde for 20 min at RT. For the quantification of proliferative activity and programmed cell death, samples were incubated overnight at 4 °C with the mouse anti-Ki67 antibody (NCL-L-Ki67-MM1, 1:100, Leica Biosystems, Wetzlar, Germany) and rabbit anti-cleaved PARP (cat. no. 94885, 1:100, Cell Signaling, Danvers, MA, USA) diluted in 0.1 M PBS containing 1% normal donkey serum (Jackson Immunoresearch, Cambridgeshire, Great Britain) and 0.3% Triton-X 100. […]
All samples were evaluated using a Leica TCS SP5X confocal system (Leica Microsystems, Mannheim, Germany). The biscoumarin derivatives were visualized in cells using a 405 nm laser, and the fluorescence was captured in the range of 420–480 nm with identical exposure parameters for all samples. […] Microphotographs were taken with a 40× objective lens (NA = 0.75; voxel size 223 × 223 nm) and a 63× oil lens (NA = 1.4; voxel size 171 × 171 nm); the images were captured and analyzed using LAS AF software (Leica Microsystems, Wetzlar, Germany).
The proliferative activity of cells incubated with the studied derivatives was expressed as a Ki67 index. In all samples (n = 3 samples per each experimental group), the number of Ki67^+ nuclei was calculated in groups of 100 randomly selected cells. […]

in vitro = test: in vitro
Experimental: The parallel artificial membrane permeability assay (PAMPA) is used as a non-cell-based in vitro assay to predict BBB penetration and is carried out in a coated 96-well membrane filter. In our assays, the filter membrane of the donor plate was coated with PBL (Polar Brain Lipid, Avanti, Denver, CO, USA) in dodecane (4 µL of 20 mg mL^−1 PBL in dodecane), and the acceptor well was filled with 300 µL of phosphate buffered saline (PBS) (pH 7.4; VA). The tested compounds were first dissolved in DMSO, and the resulting mixture was diluted with PBS (pH 7.4) to reach the final concentration (40–100 µM) in the donor well. […] Three hundred microliters of the donor solution (VD) were added to the donor wells, and the donor filter plate was carefully placed onto the acceptor plate to ensure that the coated membrane was “in contact” with both the donor solution and the acceptor buffer. The test compound diffused from the donor well through the polar brain lipid membrane (area = 0.28 cm^2) to the acceptor well. The concentration of the tested compound in both the donor and acceptor wells was assessed after 3, 4, 5, and 6 h of incubation, respectively, in quadruplicate using a UV plate reader Synergy HT (Biotek, Winooski, VT, USA) at the maximum absorption wavelength of each compound. Additionally, solutions at the theoretical equilibrium of the given compound (i.e., the theoretical concentration if the donor and acceptor compartment were simply combined) were also prepared.

COC(=O)Cc1cc(=O)oc2cc(OCCCCCCCCN3CCN(CCNC(=O)Cc4cc(=O)oc5cc(O)ccc45)CC3)ccc12 [12e, Methyl 2-[7-({2-[4-(2-{[2-(7-hydroxy-2-oxo-2H-4-chromenyl)acetyl]amino}etyl)piperazino]oktyl}oxy)-2-oxo-2H-4-chromenyl]acetate]
Cell viability of A549 (in words) (A549 cells [1]): reduced cell viability at a concentration of 65 μM | Reduction in relative number of colonies (A549 cells [2]): 20% | Cell cycle distribution, G0/G1 phase (in words) (A549 cells [3]): increase in the percentage of the cell population in the G0/G1 phase | Number of proliferating cells (Ki67 index) (A549 cells [4]; 35 µM): 59.4 ± 2.6% | Number of proliferating cells (Ki67 index) (A549 cells [4]; 65 µM): 16.5 ± 12.9% | BBB permeability prediction (in words) (in vitro; PAMPA): positive outcome; also recorded: high probability of BBB permeability; also recorded: high probability to cross the BBB | Papp (in vitro; PAMPA, pH 7.4): 13.4 ± 3.56 ×10⁻⁶ cm/s | CNS Predicted Availability (in vitro; classification from PAMPA-BBB Pe): CNS+ (CNS+: high BBB permeation predicted with Pe (×10^−6 cm s^−1) > 4.0)
